According to patent publication US6015560A, “Antibody recognizing endothelial cell ligand for leukocyte CR3” (priority 1995, dated 2000):

Assays:
B. pertussis = settings: in vivo; cited from earlier work
albumin = settings: cited from earlier work
blood brain barrier = test: Rabbit meningitis model: CSF protein and lactate (blood brain barrier permeability); type: in vivo
Procedure: (§1) The rabbit model was performed according to an established protocol. Specific pathogen free, New Zealand white rabbits (2 kg; Hare Marland, Nutley, N.J.) were anesthetized with valium (2.5 mg/kg, subcutaneously, Hoffman-LaRoche, Nutley, N.J.), ketamine (35 mg/kg, intramuscularly, Aveco, Fort Dodge, Iowa) and xylazine (5 mg/kg, intramuscularly, Miles Laboratories, Shawnee, Kans.) and a helmet of dental acrylic was affixed to the calvarium. Twenty four hours later, the rabbits were anesthetized with ethyl carbamate (1.75 g/kg; Aldrich Chemical Co., Milwaukee, Wis.) and pentobarbital (15 mg/kg; Abbott Laboratories, Abbott Park, Ill.) and placed in a stereotaxic frame. A spinal needle was introduced into the cisterna magna and 300 μl of CSF was withdrawn. The animals were challenged intracisternally with 10^8 heat killed, unencapsulated pneumococcus strain R6 introduced in 200 μl of saline (time 0). One hour later, animals were treated with peptides dissolved in 1 ml of saline by intravenous injection into the right marginal ear vein. The concentration of FHA was 0.1 μM and that of the FHA Ia, Factor X II, and scrambled FHA II peptides was 10 μM. For the acetyl-FHA II, acetyl/amide-FHA II, dimer of FHA II and trimer of FHA II peptides, the concentration was 10^-3 μM. The concentration of FHA II is given in the results section. Samples of CSF were withdrawn at hourly intervals after pneumococcal inoculation and leukocyte density was measured using a cell counter (Coulter Electronics Inc., Hialeah, Fla.). CSF samples were centrifuged at 10,000×g for 5 minutes and the supernatant was stored at -70° C. until assayed for protein concentration using the bicinchoninic acid method (BCA Kit, Pierce Chemical Co., Rockford, Ill.) and for lactate concentration (Lactate Detection Kit, Sigma, St. Louis, Mo.). Statistically significant differences between treatments were determined by a one way analysis of variance test.
Loss of barrier function of the cerebral capillary endothelium during inflammation is reflected by an influx of serum proteins into the CSF. […] To examine if the peptides were able to ameliorate these measures of cerebral injury, CSF protein and lactate concentrations were measured hourly in peptide-treated and control animals (Table 10).
Leukocyte migration into the CSF in bacterial meningitis is associated with loss of barrier function of the cerebral capillary endothelium, resulting in influx of serum proteins into the CSF. To determine whether FHA peptides were able to prevent this leukocyte-dependent injury, protein concentrations in the CSF were measured throughout the course of inflammation in peptide-treated and control animals.

CD11b/CD18 = molecular target: T1, CD11b/CD18 (Homo sapiens, UniProt P05107+P11215); test: Downmodulation of CD11b/CD18 on macrophages (binding of C3bi-coated erythrocytes); type: cell-based; settings: 0.5 mM
T1 construct: C3bi-erythrocyte rosetting after spreading on peptide-coated wells
Procedure: Human monocytes were purified from buffy coats on Percoll gradients and cultured in 12.5% human serum in Teflon beakers. Macrophages were harvested from Teflon beakers after 6-8 days and suspended in HAP buffer. Terasaki wells were coated with 5 μl of peptides (0.5 mM) or anti-CD18 mAb IB4 (50 μg/ml). Control wells were coated with HAP. After 2 hours of incubation at RT, 5 μl of macrophages (5×10^5 /ml HAP) were added and allowed to spread for 45 mins. at 37° C. […] IgM-coated erythrocytes in buffer served as negative control. After washing, the number of erythrocytes bound per 100 leukocytes (adherence index) was quantitated visually under an inverted microscope.

[1] = tested on: human umbilical vein endothelial cells; test: Adherence of neutrophils to cultured (TNF-stimulated) endothelial cells; type: cell-based; settings: for neutrophil adherence blocking activity (in words) / inhibition of neutrophil adherence to endothelial cells: 0.5 mM; for neutrophil adherence blocking activity (in words): compared with FHA Ca
Procedure: Human umbilical vein endothelial cells (HUVEC, first passage, Clonetics, San Diego, Calif.) were subcultured at confluence into Terasaki tissue culture wells. After 24 hours, confluent monolayers were used for adherence assays. Monolayers were stimulated with 10 ng/ml TNF alpha (Boehringer Mannheim, Indianapolis, Ind.) at 37° C. for four hours. 30 μl of human neutrophils (10^6 /ml) were labeled with fluorescein by the method of Lo et al. (1991), J. Exp. Med. 173 1493-1500, and preincubated for 15 minutes at 37° C. with 20 μl of peptides (0.5 mM in HAP) or HAP (phosphate buffered saline containing 0.5 mg/ml human serum albumin, 3 mM glucose, and 0.3 U/ml aprotinin) as a control buffer. For some experiments, endothelial cells were pretreated from 10 minutes with Factor X or antibodies against Factor X receptor (EPR-1; Altieri et al. (1990), J. Immunol. 145, 246-253) 12H1 and 9D4 (obtained from Dr. D. Altieri, Scripps Research Institute, Lajolla, Calif.) and then washed. Neutrophils were allowed to adhere to the monolayer for 15 mins. at 37° C. and unbound cells were removed by submersion of the plate in PBS buffer. The number of adherent neutrophils was counted in a 40× microscope field and expressed as a percentage of adherence in control wells with neutrophils treated with HAP buffer alone. The mAb IB4 against CD18 (50 μg/ml; Merck Inc., Rahway, N.J.) served as a positive control.
(§2) The procedures for determining the neutrophil adherence to cultured endothelial cells and the transendothelial migration of neutrophils were identical with those of Example 9. Control values were the same as those shown in Example 9.

leukocytes in CSF [2] = test: Rabbit meningitis model: leukocyte migration into CSF; type: in vivo; settings: for leukocyte migration into CSF (in words): 0.1 μM peptide i.v.; for leukocyte density in CSF: 7 hours, 1 ml of 1 uM peptide i.v.
Procedure: as §1
The anti-inflammatory effects of the administered peptides were assessed in the rabbit model for meningitis by the procedures described in Example 10. The animals received 1 ml of 1 uM peptide intravenously. In a slight departure from the protocol described in Example 10, samples of blood were drawn from the left marginal ear vein 30 minutes after the administration of the peptides to determine peripheral leukocyte concentrations.

blood-brain barrier = test: Rat meningitis model (LOS): blood-brain barrier permeability; type: in vivo; settings: for inhibition of blood-brain barrier permeability (in words): rat, in vivo
Procedure: (§3) Briefly, anesthetized female Wistar rats were placed under a micromanipulator and inoculated intracisternally with a 25 gauge needle. After removal of 50 μl of CSF (without visible blood contamination), rats were inoculated intracisternally with 50 μl (20 ng) of LOS using a 1 ml syringe with a 25 gauge needle. Ten to fifteen minutes after inoculation with LOS, the rats were treated by intravenous administration of the test substance: a solution of an FHA peptide in PBS, a solution of a control peptide in PBS, or an equal volume of PBS alone.
(§4) Three hours after LOS inoculation, 5 μCi of ^125 I-radiolabelled albumin in 50 μl normal saline was administered intravenously. One hour later, CSF was collected via intracisternal puncture and blood samples were collected via intracardiac puncture. CSF leukocytosis was determined by manually counting white blood cells using a hemacytometer, and blood-brain barrier permeability was determined as the percent of radioactivity in whole blood that was present in the CSF. Blood samples were obtained immediately prior to inoculation, immediately prior to treatment, and at 4 hours post-inoculation for determination of peripheral white blood cell concentrations.

[3] = Stability in 50% rabbit plasma; type: in vitro ADME; settings: 37° C.
Procedure: To determine the stability of the FHA II peptide, the unmodified or the acetylated-amidated peptide were incubated in 50% rabbit plasma at 37° C.

[4] = Peripheral white blood cells in rats; settings: rat, in vivo
Procedure: as §4

leukocytes in CSF [5] = test: Rat meningitis model (LOS): CSF leukocytosis; type: in vivo; settings: 600 nmol i.v., 4 hours
Procedure: The experiments were performed according to established protocols (Wispelway et al., 1988, J. Clin. Invest., 82: 1339-1346). Purified Haemophilus influenzae type b strain DL42 lipooligosaccharide (LOS) was prepared for inoculation by sonication for 30 minutes, dilution to the desired concentration (20 ng/50 μl) in normal saline or PBS, and sonication for an additional 15 to 30 minutes just prior to use.
as §3, §4

neutrophils = test: Transendothelial migration of neutrophils; type: cell-based, human; settings: for % Inhibition of TEM: peptides 0.01 mM
Procedure: Transendothelial migration of neutrophils was studied based on a method described by Muller et al. (1992), J. Exp. Med. 176: 819-828. Briefly, human neutrophils suspended in ice-cold Hanks balanced salt solution (HBSS) containing Ca^++ and Mg^++ (Sigma) were fluoresceinated by adding 3.3 μl/ml 5-(and 6-)carboxyfluorescein diacetate, succinimidyl ester (CFSE, Molecular Probes Inc., Oreg.). After incubation for 30 mins. on ice, neutrophils were washed twice in cold HBSS with Ca^++ and Mg^++ and resuspended in cold Medium 199 (M199, Sigma) to a final concentration of 10^6 /ml. Human umbilical vein endothelial cells were subcultured at confluence into 96-well tissue culture plates (Becton Dickinson Labware, Lincoln Park, N.J.) that were coated with hydrated collagen gel (Vitrogen; Collagen Corporation, Palo Alto, Calif.) and fibronectin. Endothelial cells were stimulated with 10 ng/ml TNF-alpha for 4 hours and washed three times with warm M199. Neutrophils (10^6 /ml) were preincubated with 0.01 mM of peptides or with 1 μM of native FHA in M199 for 5 mins. on ice before they were added in 100 μl aliquots to the endothelial cells. For positive control, neutrophils were pre-incubated with 25 μg/ml anti-CD18 mAb IB4. For negative control, neutrophils were treated with 25 μg/ml mAb W6/32 against HLA class I antigen (Dako, Carpinteria, Calif.). The cells were incubated for 1 hour at 37° C., 5% CO2. To terminate transmigration, the supernatant fluid was aspirated and the wells were filled with warm 1 mM EGTA (Sigma) in HBSS without Ca and Mg. The plates were covered with plate sealers (Dynatech, Alexandria, Va.) and centrifuged in an inverted position at 250 g for 3 mins. at room temperature. To remove residual non-transmigrated neutrophils from the endothelial cells, monolayers were washed twice with 200 μl of warm Hanks solution without Ca and Mg. Fluorescence was quantitated using a fluorescence counter (Millipore Cytofluor™ 2300). The percentage of transmigrated neutrophils was determined by comparing the amount of fluorescence of test wells with that measured in collagen- and fibronectin-coated wells without endothelial cells. […] Percent inhibition of transendothelial migration of neutrophils was calculated by comparing the number of transmigrated cells in wells containing neutrophils treated with peptide to neutrophils treated with M199 alone and arbitrarily set at 100% transendothelial migration (TEM).
as §2

cerebral infarct = test: Rat transient middle cerebral artery occlusion: infarct volume; type: in vivo; settings: 2 hours MCAo; 50 nmol i.v. plus 150 nmol i.p. boluses; 48 hours
ciliated cells = settings: cited from earlier work

T1 sequence (P05107 23-769, other chains not shown): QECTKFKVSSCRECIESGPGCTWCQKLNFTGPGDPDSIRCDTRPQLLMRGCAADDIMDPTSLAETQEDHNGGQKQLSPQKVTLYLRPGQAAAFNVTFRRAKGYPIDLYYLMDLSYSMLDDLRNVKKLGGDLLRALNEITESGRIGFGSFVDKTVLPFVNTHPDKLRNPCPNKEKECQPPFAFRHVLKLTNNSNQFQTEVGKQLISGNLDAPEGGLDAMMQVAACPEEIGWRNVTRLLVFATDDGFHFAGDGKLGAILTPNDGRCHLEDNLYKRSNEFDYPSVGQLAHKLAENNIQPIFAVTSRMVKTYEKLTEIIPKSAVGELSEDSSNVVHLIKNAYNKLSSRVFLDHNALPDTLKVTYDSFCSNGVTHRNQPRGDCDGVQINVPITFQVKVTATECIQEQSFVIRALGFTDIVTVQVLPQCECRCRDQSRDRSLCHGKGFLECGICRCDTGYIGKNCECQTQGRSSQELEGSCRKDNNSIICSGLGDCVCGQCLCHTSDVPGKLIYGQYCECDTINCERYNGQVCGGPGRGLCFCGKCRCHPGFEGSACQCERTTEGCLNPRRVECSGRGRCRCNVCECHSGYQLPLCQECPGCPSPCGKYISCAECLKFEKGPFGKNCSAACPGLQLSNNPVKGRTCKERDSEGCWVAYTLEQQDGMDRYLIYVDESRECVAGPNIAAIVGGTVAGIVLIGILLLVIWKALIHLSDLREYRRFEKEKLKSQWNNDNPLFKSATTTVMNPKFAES

Compound: OC[C@H]1O[C@@H](O[C@H]2[C@H](O)[C@@H](O)C(O)O[C@@H]2CO)[C@H](O)[C@@H](O)[C@H]1O (stereo partly shown) [Lactose]
- colonization of rabbit lung (B. pertussis): decrease colonization of rabbit lung

Compound: CC1(C)S[C@@H]2[C@H](NC(=O)Cc3ccccc3)C(=O)N2[C@H]1C(=O)O [penicillin]
- bound to albumin (albumin): ~80%

Compound: AADPHQGVLAQGDIIMDAKG [FHA Cc]
- Total protein in CSF (blood brain barrier; 6 hours): 1.36 ± 0.16 mg/mL
- Total protein in CSF (blood brain barrier; 7 hours): 1.90 ± 0.22 mg/mL
- effect on CD11b/CD18 (in words) (CD11b/CD18): no significant effect
- neutrophil adherence blocking activity (in words) [1]: activity was detectable above background but was not statistically different from buffer alone

Compound: Ac-ETKEVDG-NH2 [Acetyl/Amide-FHA II]
- protein influx into CSF and lactate generation (in words) (blood brain barrier; 10 μM peptides, 0.1 μM FHA): significantly reduced protein influx into the CSF and generation of lactate
- leukocytes in CSF (leukocytes in CSF [2]; 6 hours, 10 nmoles i.v.): 3011±684 cells/μl
- inhibition of blood-brain barrier permeability (in words) (blood-brain barrier): not observed
- concentration over time (in words) [3]: remained unchanged over 48 hours
- neutropenia [4]: No neutropenia
- interference with neutrophil adherence (in words) ([1]; peptides 0.5 mM): significantly enhanced the ability of peptide FHA II to block neutrophil adherence to endothelia
- Leukocytosis (CSF leukocyte concentration) (leukocytes in CSF [5]): approximately 10,000 cells/ml
- Leukocytosis (CSF leukocyte concentration) (leukocytes in CSF [5]; listed as ac/am FHA II): 10,500 ± 8523 cells/ml

Compound: GTLLLRNDALTENGTVTISA [FHA Cd]
- Total protein in CSF (blood brain barrier; 6 hours): 1.71 ± 0.19 mg/mL
- Total protein in CSF (blood brain barrier; 7 hours): 2.03 ± 0.57 mg/mL
- effect on CD11b/CD18 (in words) (CD11b/CD18): no significant effect
- leukocyte recruitment into CSF (in words) (leukocytes in CSF [2]; 1 μM peptide i.v.): no effect
- inhibition of neutrophil adherence to endothelial cells [1]: < 15%
- % Inhibition of TEM (neutrophils): 6 ± 6%

Compound: RADPHQGVLAQGDIIMDAKG [FHA Cb]
- Total protein in CSF (blood brain barrier; 6 hours): 1.91 ± 0.24 mg/mL
- Total protein in CSF (blood brain barrier; 7 hours): 2.28 ± 0.28 mg/mL
- effect on CD11b/CD18 (in words) (CD11b/CD18): no significant effect
- leukocyte migration into CSF (in words) (leukocytes in CSF [2]): ineffective
- leukocyte density in CSF (leukocytes in CSF [2]): 2788±1022 cells/μl CSF
- neutrophil adherence blocking activity (in words) [1]: activity was decreased by half
- % Inhibition of TEM (neutrophils): 8 ± 9%

Compound: RGDPHQGVLAQGDIIMDAKG [FHA Ca]
- Total protein in CSF (blood brain barrier; 6 hours): 1.18 ± 0.39 mg/mL
- Total protein in CSF (blood brain barrier; 7 hours): 1.69 ± 0.41 mg/mL
- leukocyte migration into CSF (in words) (leukocytes in CSF [2]): significantly reduced leukocyte migration into the CSF
- leukocyte density in CSF (leukocytes in CSF [2]): 2137±1498 cells/μl CSF
- BBB permeability (blood-brain barrier; 100 nmol i.v., radioactivity in CSF of that in whole blood): 3.0%
- inhibition of blood-brain barrier permeability (in words) (blood-brain barrier): dose dependent
- infarct volume (cerebral infarct): approximately 25 % of the hemisphere
- neutropenia [4]: No neutropenia
- concentration at which loss of activity (≤20% inhibition) occurred [1]: 1 µM
- inhibition of neutrophil adherence to endothelial cells [1]: 47±7%
- maximal inhibition of neutrophil attachment ([1]; concentration dependence): ~ 50%
- concentration required for inhibition of transendothelial migration similar to native FHA (82%) (neutrophils): 10 µM

Compound: lactosamines
- inhibition of adherence of B. pertussis to human ciliated cells (ciliated cells): Inhibition of adherence
